# Legend:
# [1] = target: T1, progesterone receptor (PR) (Homo sapiens, UniProt P06401); experiment: T47D alkaline phosphatase assay, PR antagonistic activity in the presence of 1 nM P4; format: cell-based; details: T47D cells; for IC50: 1.0 nM P4, 48 h, mean ± SD from three independent experiments; for PR antagonistic activity (in words): in the presence of 1 nM P4
# T1 construct: alkaline phosphatase assay with the T47D human breast cancer cell line; endogenous in cells; host or cells: T47D
# T1 sequence (P06401 1-933): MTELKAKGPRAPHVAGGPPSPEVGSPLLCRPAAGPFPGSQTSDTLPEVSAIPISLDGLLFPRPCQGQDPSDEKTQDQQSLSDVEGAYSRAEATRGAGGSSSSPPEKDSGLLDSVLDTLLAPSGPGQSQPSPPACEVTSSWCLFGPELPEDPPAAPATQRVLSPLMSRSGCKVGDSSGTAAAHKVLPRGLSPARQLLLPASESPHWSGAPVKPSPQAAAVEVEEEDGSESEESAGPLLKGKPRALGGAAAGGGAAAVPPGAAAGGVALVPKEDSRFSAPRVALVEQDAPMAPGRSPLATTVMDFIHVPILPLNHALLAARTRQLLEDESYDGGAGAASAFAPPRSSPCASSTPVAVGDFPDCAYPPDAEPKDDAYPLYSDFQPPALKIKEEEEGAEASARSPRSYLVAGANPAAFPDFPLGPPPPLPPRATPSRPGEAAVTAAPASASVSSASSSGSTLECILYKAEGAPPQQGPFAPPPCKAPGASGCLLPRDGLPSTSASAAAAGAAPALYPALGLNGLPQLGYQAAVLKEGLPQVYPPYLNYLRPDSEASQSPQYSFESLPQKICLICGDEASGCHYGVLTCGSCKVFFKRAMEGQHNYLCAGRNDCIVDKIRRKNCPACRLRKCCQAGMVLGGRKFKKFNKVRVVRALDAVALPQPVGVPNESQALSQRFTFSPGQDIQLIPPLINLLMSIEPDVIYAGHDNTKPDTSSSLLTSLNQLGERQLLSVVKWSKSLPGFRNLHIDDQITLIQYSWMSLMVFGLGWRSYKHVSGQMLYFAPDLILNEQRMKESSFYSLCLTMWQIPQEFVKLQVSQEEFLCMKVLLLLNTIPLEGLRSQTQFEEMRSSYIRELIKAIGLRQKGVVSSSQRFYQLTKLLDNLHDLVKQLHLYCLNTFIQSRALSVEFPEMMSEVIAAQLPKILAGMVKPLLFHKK
# Description: The PR agonistic and antagonistic activities of the synthesized phosphine–borane derivatives were evaluated using an alkaline phosphatase assay with the T47D human breast cancer cell line. […] The basal alkaline phosphatase activity was also not affected by the tested compounds alone. […] The PR antagonistic activities of the compounds were assessed in the presence of 1 nM of P4 (5). We also calculated the molecular volume of each compound to investigate the structure–activity relationship (SAR). Table 2 summarizes the PR antagonistic activity and calculated volumes of the synthesized compounds. […] We investigated the binding affinity of the compounds toward the PR ligand-binding domain (LBD) using a fluorescence polarization assay system. […] We also investigated the activity of compounds 28 and 34 toward the androgen receptor (AR) by means of cell-proliferation promoting/inhibitory activity toward androgen-dependent SC-3 cells. […].
# T47D alkaline phosphatase assays were performed as previously described, with minor modifications. Briefly, the human breast cancer cell line T47D (HMS LINCS database Accession Numbers: 50541) was routinely cultivated in RPMI 1640 medium with 10% FBS at 37 °C in a 5% CO2 humidified incubator. The cells were plated in 96-well plates and incubated overnight in a 5% CO2 humidified incubator at 37 °C. The next day, the cells were treated with a fresh medium containing the test compound in the presence of 1 nM of progesterone and further incubated for 48 h. The medium was aspirated, and the cells were fixed with 100 μL of 1.8% formalin–PBS. The fixed cells were washed with PBS, and 100 μL of an assay buffer (1 mg/mL p-nitrophenol phosphate in diethanolamine water solution, pH 9.0) was added. The mixture was incubated at room temperature for 2 h under light-shielded conditions. The absorbance was measured at 405 nm using a DTX 880 Multimode Detector (Beckman Coulter, Brea, CA, USA). All data points were measured in triplicate, and IC50 values were calculated from three independent experiments.
# [2] = LogP (1-octanol/water partition coefficient) determined using HPLC; format: physicochemical
# Description: Hydrophobicity is a key determinant of the activity and pharmacokinetics of biologically active compounds, and the octanol–water partition coefficient (P) and logarithm value (LogP) are widely used hydrophobicity parameters. The LogP values of the synthesized compounds were determined using HPLC [45, 46]. Table 1 summarizes the experimentally determined LogP values and calculated values. […] From the viewpoint of the phosphine structure, an increase in the number of carbon atoms increased hydrophobicity in a predictable manner.
# The 1-octanol/water partition coefficient P was determined using HPLC based on the OECD Guideline for Testing Chemicals. A COSMOSIL Packed Column 5C18-MS-II (5 μm, 150 mm × 4.6 mm id, Nacalai Tesque, Inc., Kyoto, Japan) was fitted on an HPLC instrument (Multiwavelength Detector, MD-2010 Plus. JASCO, Tokyo, Japan) equipped with a pump (PU-2080, JASCO) and an oven (SSC-2120, Senshu Scientific Co., Ltd., Tokyo, Japan). The injection volume was 20 µL; the mobile phase was methanol–water 75% (v/v); and the flow rate was 1.0 mL/min in all cases. Compounds were detected by measuring the UV absorption at 240 nm. The temperature of the column was kept at 40.0 (± 0.1) °C during the measurement. The measurement was performed in triplicate, and the mean value was calculated. The dead time t0 was measured with thiourea as the unretained compound, and the capacity factor k was calculated using the equation logk = log (tr − t0/t0), where tr represents the retention time of the compound. A calibration graph was determined experimentally using reference compounds (4-methylphenol, 4-chlorophenol, 4-phenylphenol, diphenylether, fluoranthene, and dichlorodiphenyltrichloroethane) with known logP values. The LogP values of phosphine–boranes were calculated based on a calibration graph (LogP = 2.6269 logkw + 3.059, R^2 = 0.9915).
# [3] = HPLC (OECD guideline), C18 column, methanol–water 75% (v/v), 40 °C, mean of triplicate
# [4] = HPLC, tentative value: hydrophobicity beyond the range of the reference compounds (1.9 < LogP < 6.5)
Structure (SMILES),IC50 [1] [nM],PR antagonistic activity (in words) [1],"chromatographic logP [2, 3]",melting point [°C],"chromatographic logP [2, 4]"
"C[P+](C)(C)[BH2-]c1cccc(C(F)(F)F)c1 [Compound 16, B-3-(Trifluoromethyl)phenyl Trimethylphosphine–Borane]",> 10000,only weak potency,3.65,,
"CC[P+]([BH2-]c1cccc(C(F)(F)F)c1)(CC)CC [Compound 18, B-3-(Trifluoromethyl)phenyl Triethylphosphine–Borane]",3670 ± 3340,moderate PR antagonistic activity,4.88,,
"CC(C)[P+]([BH2-]c1cccc(C(F)(F)F)c1)(c1ccccc1)C(C)C [Compound 21, B-3-(Trifluoromethyl)phenyl Diisopropyl(phenyl)phosphine–Borane]",3350 ± 1490,moderate PR antagonistic activity,5.93,118.7 to 119.1,
"CCCC[P+]([BH2-]c1cccc(C(F)(F)F)c1)(CCCC)CCCC [Compound 23, B-3-(Trifluoromethyl)phenyl Tri-n-Butylphosphine–Borane]",> 10000,only weak potency,,,7.34
"FC(F)(F)c1cccc([BH2-][P+](C2CCCC2)(C2CCCC2)C2CCCC2)c1 [Compound 24, B-3-(Trifluoromethyl)phenyl Tricyclopentylphosphine–Borane]",6640 ± 870,moderate PR antagonistic activity,,,7.84
"FC(F)(F)c1cccc([BH2-][P+](C2CCCCC2)(C2CCCCC2)C2CCCCC2)c1 [Compound 25, B-3-(Trifluoromethyl)phenyl Tricyclohexylphosphine–Borane]",> 10000,only weak potency,,100 to 100.5,8.69
"FC(F)(F)c1cccc([BH2-][PH+](C2CCCCC2)C2CCCCC2)c1 [Compound 26, B-3-(Trifluoromethyl)phenyl Dicyclohexylphosphine–Borane]",,,,,7.28
"CC[P+]([BH2-]c1ccc(C(F)(F)F)cc1)(CC)c1ccccc1 [Compound 31, B-4-(Trifluoromethyl)phenyl Diethyl(phenyl)phosphine–Borane]",1780 ± 970,,5.41,62 to 62.3,
"CC(C)[P+]([BH2-]c1ccc(C(F)(F)F)cc1)(c1ccccc1)C(C)C [Compound 33, B-4-(Trifluoromethyl)phenyl Diisopropyl(phenyl)phosphine–Borane]",2010 ± 580,,6.15,94.8 to 95.2,
"CCCC[P+]([BH2-]c1ccc(C(F)(F)F)cc1)(CCCC)CCCC [Compound 35, B-4-(Trifluoromethyl)phenyl Tri-n-butylphosphine–Borane]",> 10000,,,33.2 to 33.8,7.5
"FC(F)(F)c1ccc([BH2-][P+](C2CCCC2)(C2CCCC2)C2CCCC2)cc1 [Compound 36, B-4-(Trifluoromethyl)phenyl Tricyclopentylphosphine–Borane]",2630 ± 720,,,88 to 88.6,7.95
"FC(F)(F)c1ccc([BH2-][P+](C2CCCCC2)(C2CCCCC2)C2CCCCC2)cc1 [Compound 37, B-4-(Trifluoromethyl)phenyl Tricyclohexylphosphine–Borane]",> 10000,,,126.7 to 127,8.97
"FC(F)(F)c1ccc([BH2-][PH+](C2CCCCC2)C2CCCCC2)cc1 [Compound 38, B-4-(Trifluoromethyl)phenyl Dicyclohexylphosphine–Borane]",,,,52.7 to 53.7,7.34

# Second part, the compound after the results:
IC50 [1] [nM],PR antagonistic activity (in words) [1],"chromatographic logP [2, 3]",melting point [°C],"chromatographic logP [2, 4]",Structure (SMILES)
1160 ± 600,potent activities,4.54,75 to 75.8,,"C[P+](C)([BH2-]c1cccc(C(F)(F)F)c1)c1ccccc1 [Compound 17, B-(3-Trifluoromethyl)phenyl Dimethyl(phenyl)phosphine–Borane]"
1120 ± 220,potent activities,5.24,40 to 40.5,,"CC[P+]([BH2-]c1cccc(C(F)(F)F)c1)(CC)c1ccccc1 [Compound 19, B-3-(Trifluoromethyl)phenyl Diethyl(phenyl)phosphine–Borane]"
1350 ± 470,potent activities,5.89,,,"CC(C)[P+]([BH2-]c1cccc(C(F)(F)F)c1)(C(C)C)C(C)C [Compound 20, B-3-(Trifluoromethyl)phenyl Triisopropylphosphine–Borane]"
650 ± 170,potent activities,5.21,,,"FC(F)(F)c1cccc([BH2-][P+](C2CC2)(C2CC2)C2CC2)c1 [Compound 22, B-3-(Trifluoromethyl)phenyl Tricyclopropylphosphine–Borane]"
1200 ± 630,potent activities,5.39,,,"CN(C)[P+]([BH2-]c1cccc(C(F)(F)F)c1)(N(C)C)N(C)C [Compound 27, B-3-(Trifluoromethyl)phenyl Tris(dimethylamino)phosphine–Borane]"
1610 ± 870,,4.65,78 to 78.3,,"C[P+](C)([BH2-]c1ccc(C(F)(F)F)cc1)c1ccccc1 [Compound 29, B-4-(Trifluoromethyl)phenyl Dimethyl(phenyl)phosphine–Borane]"
1760 ± 1440,,4.99,,,"CC[P+]([BH2-]c1ccc(C(F)(F)F)cc1)(CC)CC [Compound 30, B-4-(Trifluoromethyl)phenyl Triethylphosphine–Borane]"
1510 ± 530,,6.06,59 to 59.4,,"CC(C)[P+]([BH2-]c1ccc(C(F)(F)F)cc1)(C(C)C)C(C)C [Compound 32, B-4-(Trifluoromethyl)phenyl Triisopropylphosphine–Borane]"

# Source: PMC11013038, “Design, Synthesis, and Evaluation of B-(Trifluoromethyl)phenyl Phosphine–Borane Derivatives as Novel Progesterone Receptor Antagonists” (Molecules, 2024)
